“Also recorded” adds a separate entry of the source.
Assays:
hNpr1 [1] = molecular target: T1, hNpr1 (Homo sapiens, UniProt P16066); experiment: GloSensor assay in 96-well format, HEK-hNpr1-cGMP-sensor cells; assay type: cell-based; set-up: Reversibility of hNpr1 inhibition after washing: dose or concentration left out as unconfirmed; settings: for Imax [%] (mean ± SEM), GloSensor 96-well format / IC50: 60 pM hNppa 5 minutes after compound; for IC50: read-out: IC50 [μM] (mean ± SEM), GloSensor 96-well format; for Ki: calculated with Cheng-Prusoff equation from Table 3, read-out: Ki hNpr1 GloSensor™ [μM] (mean ± SEM); for Effect on hNppa concentration-response at fixed antagonist concentration: 5 μM antagonist, increasing hNppa, GloSensor and membrane cyclase assays (FIGS. 5B-C); for Basal (unstimulated) hNpr1 activity: HEK-hNpr1-cGMP-sensor cells, no agonist
T1 sequence (P16066 33-1061): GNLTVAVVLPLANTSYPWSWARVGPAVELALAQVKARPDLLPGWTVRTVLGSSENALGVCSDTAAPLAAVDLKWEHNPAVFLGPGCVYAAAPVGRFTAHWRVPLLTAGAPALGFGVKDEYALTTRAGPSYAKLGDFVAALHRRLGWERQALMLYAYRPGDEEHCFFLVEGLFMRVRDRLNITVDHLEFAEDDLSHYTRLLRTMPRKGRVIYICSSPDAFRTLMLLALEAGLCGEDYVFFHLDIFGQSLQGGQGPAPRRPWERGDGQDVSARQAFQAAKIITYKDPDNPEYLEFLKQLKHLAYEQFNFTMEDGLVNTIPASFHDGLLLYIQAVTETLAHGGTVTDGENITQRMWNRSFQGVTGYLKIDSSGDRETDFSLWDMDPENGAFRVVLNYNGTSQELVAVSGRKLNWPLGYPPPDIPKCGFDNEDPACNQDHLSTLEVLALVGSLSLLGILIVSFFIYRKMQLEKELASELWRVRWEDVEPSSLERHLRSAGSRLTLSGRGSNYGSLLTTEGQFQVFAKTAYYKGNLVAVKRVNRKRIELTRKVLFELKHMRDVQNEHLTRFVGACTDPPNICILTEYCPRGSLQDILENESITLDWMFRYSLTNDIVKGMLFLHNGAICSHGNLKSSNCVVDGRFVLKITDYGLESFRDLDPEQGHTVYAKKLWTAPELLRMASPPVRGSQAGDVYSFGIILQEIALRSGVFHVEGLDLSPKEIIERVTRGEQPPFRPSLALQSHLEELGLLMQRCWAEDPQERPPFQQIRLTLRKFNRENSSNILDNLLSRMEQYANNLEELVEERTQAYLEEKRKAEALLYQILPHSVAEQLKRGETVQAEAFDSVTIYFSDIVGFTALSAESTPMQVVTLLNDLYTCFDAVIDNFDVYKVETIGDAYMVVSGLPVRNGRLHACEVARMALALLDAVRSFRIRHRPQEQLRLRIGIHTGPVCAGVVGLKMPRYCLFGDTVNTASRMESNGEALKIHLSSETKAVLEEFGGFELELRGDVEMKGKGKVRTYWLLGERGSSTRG
Experimental: Before the measurement (24 hours in advance), 3×10^4 cells were seeded into white 96-well plates (PerkinElmer, Waltham, Mass.), coated with 0.1% poly(D-lysine), and assays conducted as recommended by the manufacturer (Promega). Medium was aspirated and cells were loaded for two hours at room temperature with 2% GoSensor™ reagent diluted in CO2-independent media (ThermoFisher) supplemented with 2 mM L-glutamine and 10% FBS (assay medium). Luminescence was measured on a BioTek Synergy™ NEO (Winooski, Vt.) plate reader at room temperature. After a baseline measurement of 3-5 minutes, assay medium as a control or assay medium with agonist was manually added, and luminescence was measured for 30 minutes at ˜ 1/60 Hz. For compounds tested for Npr1 and Npr2 inhibition, the compounds were added after baseline measurements, and luminescence was read for 5 minutes before addition of agonist. Luminescence was then normalized to baseline measurements and plotted against the time. Ligand-induced changes of cGMP production were quantified by determining the area under the curve. To determine efficacy and potency of agonists, ligand-induced changes were normalized to medium only addition and plotted against the ligand concentration. […] To quantify […] of compounds, compound-induced changes of agonist-induced cGMP production were normalized to vehicle controls, plotted against compound concentration, and fit with a four-parameter logistic regression. Effects of A-71915 on basal mNpr1 activity were fitted with a bell-shaped regression (equation indicated below).
Additional screens of the fifteen candidates corroborated hNpr1 inhibition. In particular, HEK-hNpr1-cGMP-sensor cells were seeded in 96-wells and stimulated with 60 pM hNppa 5 minutes after addition of candidate compounds or A-71915 and luminescence was measured for 30 minutes. Inhibitors were titrated to calculate apparent potency (IC50) and efficacy (Imax) of inhibition of hNppa-induced cGMP production.

hNpr1 [2] = molecular target: T1, hNpr1; experiment: Cell-free hNpr1 membrane cyclase assay (cGMP ELISA); assay type: biochemical
[3] = Table 1, biochemical assay, read-out: IC50 biochem assay
[4] = calculated with Cheng-Prusoff equation from Table 4, read-out: Ki hNpr1 cyclase assay [μM] (mean ± SEM)
[5] = membranes of HEK-hNpr1-cGMP-sensor cells, hNppa-stimulated
[6] = membranes of HEK-hNpr1-cGMP-sensor cells, hNppa-stimulated, read-out: IC50 [μM] (mean ± SEM), membrane cyclase assay

Compound	Imax [%] (mean ± SEM), GloSensor 96-well format (hNpr1 [1])	IC50 (hNpr1 [1]) [µM]	Ki (hNpr1 [1]) [µM]	IC50 (hNpr1 [2]; [3]) [µM]	Ki (hNpr1 [2]; [4]) [µM]	Imax [%] (mean ± SEM), membrane cyclase assay (hNpr1 [2]; [5])	IC50 (hNpr1 [2]; [6]) [µM]	Effect on hNppa concentration-response at fixed antagonist concentration (hNpr1 [1])	Reversibility of hNpr1 inhibition after washing (hNpr1 [1]; 5 minutes compound, 5-minute washing step, then hNppa)	Basal (unstimulated) hNpr1 activity (hNpr1 [1])	Ki (hNpr1 [2]) [µM]	IC50 (hNpr1 [2]; IC50 [μM] (mean ± SEM), membrane cyclase assay, membranes of HEK-hNpr1-cGMP-sensor cells, hNppa-stimulated) [µM]	IC50 (hNpr1 [2]; IC50 biochem assay (M), Table 1, biochemical assay) [µM]
COc1ccccc1-c1n[nH]c2ncc(C(=O)NCc3cccnc3)nc12 [JS-6, 3-(2-methoxyphenyl)-N-(pyridin-3-ylmethyl)-1H-pyrazolo[3,4-b]pyrazine-5-carboxamide]	−94.2 ± 5.3	1.9 ± 0.1	0.31 ± 0.023	0.766	0.11 ± 0.275	−99.4 ± 0.5	0.8 ± 1.9	–	–	–	–	–	–
O=C(NCc1cccnc1)c1cnc2[nH]nc(-c3ccccc3)c2n1 [JS-7, 3-phenyl-N-(pyridin-3-ylmethyl)-1H-pyrazolo[3,4-b]pyrazine-5-carboxamide]	–	1.2 ± 0.5	0.19 ± 0.085	0.122	0.02 ± 0.044	−98.4 ± 1.5	0.1 ± 0.3	–	–	–	–	–	–
Cc1nn2c(c1-c1ccccc1OCc1ccccc1)N(C(=O)Cc1ccc3c(c1)OCO3)CCC2 [JS-8, 2-(benzo[d][1,3]dioxol-5-yl)-1-(3-(2-(benzyloxy)phenyl)-2-methyl-6,7-dihydropyrazolo[1,5-a]pyrimidin-4(5H)-yl)ethan-1-one]	−98.8 ± 0.7	1.2 ± 0.1	0.2 ± 0.013	0.336	0.05 ± 0.064	−98.0 ± 2.0	0.3 ± 0.4	reduced maximal responses even at extremely high hNppa concentrations	a single washing step was sufficient to completely recover hNpr1 activity; also recorded: reversible	dose dependently inhibited	–	–	–
Cc1nn2c(c1-c1ccccc1Oc1ccccc1)N(C(=O)Cc1ccc3c(c1)OCO3)CCC2 [JS-10, 2-(benzo[d][1,3]dioxol-5-yl)-1-(2-methyl-3-(2-phenoxyphenyl)-6,7-dihydropyrazolo[1,5-a]pyrimidin-4(5H)-yl)ethan-1-one]	−98.3 ± 1.7	6.7 ± 6.7	1.07 ± 1.08	0.744	0.11 ± 0.09	−95.2 ± 3.3	0.7 ± 0.6	–	–	–	–	–	–
N#Cc1ccccc1CN1CCCC(C(=O)NCc2ccccc2)CCNC(=O)CC1 (stereo not shown) [JS-13, N-benzyl-1-(2-cyanobenzyl)-4-oxo-1,5-diazacycloundecane-8-carboxamide]	−96.1 ± 0.4	1.1 ± 0.1	0.18 ± 0.011	1.19	0.12 ± 0.13	−94.4 ± 5.4	0.8 ± 0.9	–	–	–	–	–	–
CCC(CC)c1cc([C@H]2CN3CC[C@H]2C[C@@H]3CNS(=O)(=O)c2cccs2)nc(-c2ccncc2)n1 [JS-3, N-(((2R,4S,5R)-5-(6-(pentan-3-yl)-2-(pyridin-4-yl)pyrimidin-4-yl)quinuclidin-2-yl)methyl)thiophene-2-sulfonamide]	−99.4 ± 0.6	3.1 ± 0.6	0.5 ± 0.102	3.98	0.58 ± 0.179	−98.2 ± 1.8	4 ± 1.2	–	–	–	–	–	–
Cc1nn2c(c1-c1ccccc1OCc1ccccc1)N(C(=O)Cc1ccccn1)CCC2 [JS-9, 1-(3-(2-(benzyloxy)phenyl)-2-methyl-6,7-dihydropyrazolo[1,5-a]pyrimidin-4(5H)-yl)-2-(pyridin-2-yl)ethan-1-one]	−93.4 ± 6.4	3.1 ± 1.4	0.49 ± 0.215	2.17	0.32 ± 0.262	−95.3 ± 4.5	2.2 ± 1.8	–	–	–	–	–	–
Cc1noc(C)c1-c1cc(-c2ccccc2Oc2ccccc2)cn2cncc12 [JS-5, 3,5-dimethyl-4-(6-(2-phenoxyphenyl)imidazo[1,5-a]pyridin-8-yl)isoxazole]	−99.9 ± 0.1	7.4 ± 0.3	1.18 ± 0.048	0.141	0.02 ± 0.02	−99.8 ± 0.1	0.1 ± 0.1	reduced maximal responses even at extremely high hNppa concentrations	–	dose dependently inhibited	–	–	–
COc1cc(CN2CCC(C)(NC(C)=O)CC2)cc(-c2ccncc2)c1 [JS-4, N-(1-(3-methoxy-5-(pyridin-4-yl)benzyl)-4-methylpiperidin-4-yl)acetamide]	−95.5 ± 1.2	1.1 ± 0.01	0.18 ± 0.002	2.2	0.41 ± 0.006	−96.1 ± 3.7	2.8 ± 0.04	–	–	–	–	–	–
COc1ccc(C2(C(=O)N3CCC4(CC3)c3nccn3-c3ccccc3CN4C)CC2)cc1 [JS-12, (1-(4-methoxyphenyl)cyclopropyl)(5-methyl-5,6-dihydrospiro[benzo[f]imidazo[1,2-a][1,4]diazepine-4,4′-piperidin]-1′-yl)methanone]	−96.0 ± 1.3	1.3 ± 0.002	0.21 ± 0.0002	–	–	−99.0 ± 1.0	–	–	–	–	0.1 ± 0.015	0.7 ± 0.1	0.614
Cc1cc(CNC(=O)c2ccc3c(c2)n(CC2CC2)c(=O)n3C2CCCCC2)on1 [JS-11, 1-cyclohexyl-3-(cyclopropylmethyl)-N-((3-methylisoxazol-5-yl)methyl)-2-oxo-2,3-dihydro-1H-benzo[d]imidazole-5-carboxamide]	−96.3 ± 1.3	1.9 ± 0.8	0.3 ± 0.134	1.14	0.21 ± 0.008	−99.7 ± 0.2	1.4 ± 0.1	–	–	dose dependently inhibited	–	–	–
CN(Cc1ccccc1)C(=O)c1cn2ccnc(-c3ccccc3)c2n1 [JS-14, N-benzyl-N-methyl-8-phenylimidazo[1,2-a]pyrazine-2-carboxamide]	–	3.1 ± 1.1	0.5 ± 0.179	18.6	1.87 ± 0.723	−99.0 ± 0.0	12.7 ± 4.9	–	–	–	–	–	–
